Data published in patent US9693556B2, “Herbicidal pyridazinone derivatives” (SYNGENTA LIMITED, priority 2011, dated 2017).

How the values were obtained:
Type in all cases: in vivo
[1] = test system: Alopecurus myosuroides (ALOMY); assay: Pre-emergence herbicidal glasshouse test on Alopecurus myosuroides; settings: pre-emergence; 1000 g/h; evaluated after 13 days
Summary of the method: (§1)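 Scored on a five-point scale (1 = 0-19% to 5 = 80-100% damage) 13 days after treatment. Application rate 1000 g/h in acetone/water (50:50) containing 0.5% Tween 20, sprayed one day post-sowing for pre-emergence or eight days for post-emergence; glasshouse at 24/16° C, 14 h light, 65% humidity.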

Setaria faberi (SETFA) [2] = assay: Pre-emergence herbicidal glasshouse test on Setaria faberi; settings: pre-emergence; 1000 g/h; evaluated after 13 days
Summary of the method: as §1

[3] = test system: Echinochloa crus-galli (ECHCG); assay: Pre-emergence herbicidal glasshouse test on Echinochloa crus-galli; settings: pre-emergence; 1000 g/h; evaluated after 13 days
Summary of the method: as §1

Solanum nigrum (SOLNI) [4] = assay: Pre-emergence herbicidal glasshouse test on Solanum nigrum; settings: pre-emergence; 1000 g/h; evaluated after 13 days
Summary of the method: as §1

[5] = test system: Amaranthus retoflexus (AMARE); assay: Pre-emergence herbicidal glasshouse test on Amaranthus retoflexus; settings: pre-emergence; 1000 g/h; evaluated after 13 days
Summary of the method: as §1

[6] = test system: Ipomoea hederacea (IPOHE); assay: Pre-emergence herbicidal glasshouse test on Ipomoea hederacea; settings: pre-emergence; 1000 g/h; evaluated after 13 days
Summary of the method: as §1

[7] = test system: Alopecurus myosuroides (ALOMY); assay: Post-emergence herbicidal glasshouse test on Alopecurus myosuroides; settings: post-emergence; 1000 g/h; evaluated after 13 days
Summary of the method: as §1

Setaria faberi (SETFA) [8] = assay: Post-emergence herbicidal glasshouse test on Setaria faberi; settings: post-emergence; 1000 g/h; evaluated after 13 days
Summary of the method: as §1

[9] = test system: Echinochloa crus-galli (ECHCG); assay: Post-emergence herbicidal glasshouse test on Echinochloa crus-galli; settings: post-emergence; 1000 g/h; evaluated after 13 days
Summary of the method: as §1

Solanum nigrum (SOLNI) [10] = assay: Post-emergence herbicidal glasshouse test on Solanum nigrum; settings: post-emergence; 1000 g/h; evaluated after 13 days
Summary of the method: as §1

[11] = test system: Amaranthus retoflexus (AMARE); assay: Post-emergence herbicidal glasshouse test on Amaranthus retoflexus; settings: post-emergence; 1000 g/h; evaluated after 13 days
Summary of the method: as §1

[12] = test system: Ipomoea hederacea (IPOHE); assay: Post-emergence herbicidal glasshouse test on Ipomoea hederacea; settings: post-emergence; 1000 g/h; evaluated after 13 days
Summary of the method: as §1

SMILES	PRE Application ALOMY herbicidal damage (five point scale) [1]	PRE Application SETFA herbicidal damage (five point scale) (Setaria faberi (SETFA) [2])	PRE Application ECHCG herbicidal damage (five point scale) [3]	PRE Application SOLNI herbicidal damage (five point scale) (Solanum nigrum (SOLNI) [4])	PRE Application AMARE herbicidal damage (five point scale) [5]	PRE Application IPOHE herbicidal damage (five point scale) [6]	POST Application ALOMY herbicidal damage (five point scale) [7]	POST Application SETFA herbicidal damage (five point scale) (Setaria faberi (SETFA) [8])	POST Application ECHCG herbicidal damage (five point scale) [9]	POST Application SOLNI herbicidal damage (five point scale) (Solanum nigrum (SOLNI) [10])	POST Application AMARE herbicidal damage (five point scale) [11]	POST Application IPOHE herbicidal damage (five point scale) [12]
CC#Cc1ccc(-c2cnn(C)c(=O)c2O)c(S(C)(=O)=O)c1 [Compound 2.029]	5 (5=80-100% damage)	3 (3=40-59% damage)	5 (5=80-100% damage)	5 (5=80-100% damage)	5 (5=80-100% damage)	1 (1=0-19% damage)	5 (5=80-100% damage)	5 (5=80-100% damage)	5 (5=80-100% damage)	5 (5=80-100% damage)	5 (5=80-100% damage)	5 (5=80-100% damage)
COc1cccn(-c2cnn(C)c(=O)c2O)c1=O [Compound 1.070]	1 (1=0-19% damage)	1 (1=0-19% damage)	1 (1=0-19% damage)	1 (1=0-19% damage)	1 (1=0-19% damage)	1 (1=0-19% damage)	1 (1=0-19% damage)	4 (4=60-79% damage)	4 (4=60-79% damage)	4 (4=60-79% damage)	3 (3=40-59% damage)	1 (1=0-19% damage)
CC(C)c1cccc(-c2c(C(F)(F)F)ccn(-c3cnn(C)c(=O)c3O)c2=O)c1 [Compound 7.014]	3 (3=40-59% damage)	4 (4=60-79% damage)	3 (3=40-59% damage)	5 (5=80-100% damage)	5 (5=80-100% damage)	1 (1=0-19% damage)	1 (1=0-19% damage)	4 (4=60-79% damage)	5 (5=80-100% damage)	5 (5=80-100% damage)	5 (5=80-100% damage)	3 (3=40-59% damage)
Cn1ncc(-c2cccn(CC(F)(F)F)c2=O)c(O)c1=O [Compound 9.005]	1 (1=0-19% damage)	1 (1=0-19% damage)	1 (1=0-19% damage)	1 (1=0-19% damage)	1 (1=0-19% damage)	1 (1=0-19% damage)	1 (1=0-19% damage)	1 (1=0-19% damage)	1 (1=0-19% damage)	4 (4=60-79% damage)	2 (2=20-39% damage)	2 (2=20-39% damage)
Cn1ncc(-n2ccc(C(F)(F)F)c(-c3cncnc3)c2=O)c(O)c1=O [Compound 1.024]	1 (1=0-19% damage)	1 (1=0-19% damage)	2 (2=20-39% damage)	1 (1=0-19% damage)	5 (5=80-100% damage)	4 (4=60-79% damage)	1 (1=0-19% damage)	3 (3=40-59% damage)	2 (2=20-39% damage)	5 (5=80-100% damage)	5 (5=80-100% damage)	4 (4=60-79% damage)
Cn1ncc(-c2ccc(C(F)(F)F)cc2S(C)(=O)=O)c(OC(=O)c2ccccc2)c1=O [Compound 3.002]	5 (5=80-100% damage)	5 (5=80-100% damage)	5 (5=80-100% damage)	5 (5=80-100% damage)	5 (5=80-100% damage)	5 (5=80-100% damage)	5 (5=80-100% damage)	5 (5=80-100% damage)	5 (5=80-100% damage)	5 (5=80-100% damage)	5 (5=80-100% damage)	5 (5=80-100% damage)
Cn1ncc(-c2ccc(Cl)c(Cl)c2Cl)c(O)c1=O [Compound 1.091]	1 (1=0-19% damage)	1 (1=0-19% damage)	1 (1=0-19% damage)	1 (1=0-19% damage)	1 (1=0-19% damage)	1 (1=0-19% damage)	1 (1=0-19% damage)	1 (1=0-19% damage)	1 (1=0-19% damage)	2 (2=20-39% damage)	1 (1=0-19% damage)	1 (1=0-19% damage)
Cc1c(Cl)ccc(-c2cnn(C)c(=O)c2O)c1F [Compound 1.045]	1 (1=0-19% damage)	1 (1=0-19% damage)	1 (1=0-19% damage)	1 (1=0-19% damage)	1 (1=0-19% damage)	1 (1=0-19% damage)	1 (1=0-19% damage)	1 (1=0-19% damage)	1 (1=0-19% damage)	4 (4=60-79% damage)	2 (2=20-39% damage)	1 (1=0-19% damage)
Cn1ncc(-c2ccc(Br)cc2S(C)(=O)=O)c(O)c1=O [Compound 1.081]	5 (5=80-100% damage)	5 (5=80-100% damage)	5 (5=80-100% damage)	5 (5=80-100% damage)	5 (5=80-100% damage)	2 (2=20-39% damage)	5 (5=80-100% damage)	5 (5=80-100% damage)	5 (5=80-100% damage)	5 (5=80-100% damage)	5 (5=80-100% damage)	5 (5=80-100% damage)
Cc1ccc(Cl)c(-c2cnn(C)c(=O)c2O)c1 [Compound 1.101]	1 (1=0-19% damage)	1 (1=0-19% damage)	1 (1=0-19% damage)	1 (1=0-19% damage)	1 (1=0-19% damage)	1 (1=0-19% damage)	1 (1=0-19% damage)	1 (1=0-19% damage)	1 (1=0-19% damage)	1 (1=0-19% damage)	1 (1=0-19% damage)	1 (1=0-19% damage)
Cn1ncc(-c2cccn(Cc3ccccc3)c2=O)c(O)c1=O [Compound 9.008]	1 (1=0-19% damage)	1 (1=0-19% damage)	4 (4=60-79% damage)	2 (2=20-39% damage)	2 (2=20-39% damage)	1 (1=0-19% damage)	1 (1=0-19% damage)	1 (1=0-19% damage)	1 (1=0-19% damage)	3 (3=40-59% damage)	3 (3=40-59% damage)	1 (1=0-19% damage)
